Test results: patent publication US6511848B2, “Process for producing and multiplying lymphocytes” (Winfried Albert, priority 1996, dated 2003)

Experiments:
killer T cells = assay: Multiplication of killer T cells in serum-free DF medium; format: cell-based, human
Method: Mononuclear cells from peripheral blood (PBMNC) of human donors are isolated by means of gradient centrifugation (lymphocyte separation medium, BM), washed twice with phosphate-buffered saline solution and incubated at a density of 5-10×10^6 cells/ml DF medium according to Thiele and Lipsky (J. Immunol. 136 (1986) 1038-1048) with 250 μM leucyl-leucine-methyl ester (BM) for 20 minutes at room temperature. After washing with DF medium the cells are cultured at 37° C. in 8% CO2 atmosphere at a density of 1-2×10^6 per ml DF medium together with irradiated (2000 rad) HB654 cells or HB617 cells (stimulator cells; 2-5×10^5 per ml). On day 5-6 of the co-culture half to two thirds of the culture medium is renewed and irradiated stimulator cells (2-5×10^5 per ml) are added again. From day 8-10 after starting the co-culture, when all stimulator cells have been destroyed by the cytotoxic activity of the killer T cells, the killer T cells are used for the following examples. […]

[1] = system: Mononuclear cells from peripheral blood (PBMNC); assay: Multiplication of NK and T lymphocytes from mononuclear cells of human blood in serum-free medium; format: cell-based; details: serum-free DF medium, single cytokine
Text: Mononuclear cells from peripheral blood (PBMNC) of a human donor are isolated by means of gradient centrifugation (lymphocyte separation medium, Boehringer Mannheim GmbH, Germany (BM)), washed twice with phosphate-buffered saline solution and taken up in DF medium at a density of 1×10^6 cells/ml and cultured in three separate preparations which are denoted A, B and C. […] Half of the culture medium (+cytokine(s)) is renewed every second day and the cell count is adjusted to ca. 1×10^6 cells/ml during the first 7 days and subsequently to ca. […].

CC[C@@H]1/C=C(\C)C[C@H](C)C[C@H](OC)[C@H]2O[C@@](O)(C(=O)C(=O)N3CCCC[C@H]3C(=O)O[C@H](/C(C)=C/[C@@H]3CC[C@@H](O)[C@H](OC)C3)[C@H](C)[C@@H](O)CC1=O)[C@H](C)C[C@@H]2OC [Ascomycin, reference compound]
multiplication of killer T cells (in words) (killer T cells; additive alone, without growth factor): no multiplication

IL-15: Human recombinant IL-15 (R & D Systems), 15 ng/ml, lymphocyte growth factor
doubling cycles after which proliferation stagnates (killer T cells; growth factor alone): 3 doubling cycles

TGFβ1: rh TGFβ1 (BM), 4 ng/ml
growth behaviour of the cells (in words) [1]: do not multiply
